Experimental data published in US20230044787A1, “TRICYCLE DIHYDROIMIDAZOPYRIMIDONE DERIVATIVE, PREPARATION METHOD THEREOF, PHARMACEUTICAL COMPOSITION AND USE THEREOF” (priority 2019, published 2023).

target: T1, Lp-PLA2 (Homo sapiens, UniProt Q13093); experiment: Lipoprotein-associated phospholipase A2 (Lp-PLA2) human plasma assay (Thio-PAF assay); assay type: biochemical; settings: Comparison of activity data (I); pooled human plasma, 2-thio-PAF substrate, 30-min pre-incubation
T1 construct: aliquoted and thawed 40 μL of pooled human plasma was previously added; from tissue; host or cells: pooled human plasma
T1 sequence (Q13093 22-441): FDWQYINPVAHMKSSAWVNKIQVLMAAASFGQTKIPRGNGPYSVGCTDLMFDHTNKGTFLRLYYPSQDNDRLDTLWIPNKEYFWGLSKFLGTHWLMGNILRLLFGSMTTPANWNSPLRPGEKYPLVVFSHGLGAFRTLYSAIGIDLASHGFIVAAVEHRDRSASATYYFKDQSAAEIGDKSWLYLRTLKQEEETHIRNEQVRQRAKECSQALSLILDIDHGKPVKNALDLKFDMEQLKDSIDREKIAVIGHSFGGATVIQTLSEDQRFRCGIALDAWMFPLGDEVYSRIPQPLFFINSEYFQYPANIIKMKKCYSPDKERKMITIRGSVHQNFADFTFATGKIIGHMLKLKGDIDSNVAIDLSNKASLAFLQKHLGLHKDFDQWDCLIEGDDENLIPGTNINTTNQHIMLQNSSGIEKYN

Row | IC50 | Structure (SMILES)
1 | 75.3 nM | O=c1nc(OCc2cc(F)c(F)c(F)c2)cc2n1C[C@@H]1COCCN21 [Example 123 in WO2016011930A1, reference compound]

same assay, conditions: Lp-PLA2 human plasma assay (Thio-PAF), pooled human plasma, 30-min pre-incubation at room temperature

Row | Structure (SMILES) | IC50
2 | Cc1cc(Oc2ccc(COc3cc4n(c(=O)n3)CC35CC(CN43)C5)cc2F)ccn1 [Example 119, 3-((3-fluoro-4-((2-methyl-pyridin-4-yl)oxy)benzyl)oxy)-7,8-dihydro-1H,6H,9H-7,8a-methanopyrrolo[1′,2′:3,4] imidazo[1,2-c]pyrimidin-1-one] | 8.2 nM
3 | CCC12CCCCN1c1cc(OCc3ccc(Oc4cccc(C(F)(F)F)c4)c(C#N)c3)nc(=O)n1C2 (stereo not drawn) [Example 77, 5-(((9a-ethyl-1-oxo-6,7,8,9,9a,10-hexahydro-1H-pyrido[1′,2′:3,4]imidazo [1,2-c]pyrimidin-3-yl)oxy)methyl)-2-(3-(trifluoromethyl)phenoxy) benzonitrile] | 5.7 nM
4 | CC12CCCN1c1cc(OCc3cc(F)c(Oc4ccnc(OC(F)(F)F)c4)c(F)c3)nc(=O)n1C2 (stereo not drawn) [Example 55, 3-((3,5-difluoro-4-((2-(trifluoromethoxy)pyridin-4-yl)oxy)benzyl)oxy)-8a-methyl-7,8,8a,9-tetrahydro-1H,6H-pyrrolo[1′,2′:3,4]imidazo [1,2-c]pyrimidin-1-one] | 6.5 nM
5 | O=c1nc(OCCc2ccc(Oc3ccc(Cl)c(C(F)(F)F)c3)cc2)cc2n1C[C@]13CO[C@H](CN21)C3 [Example 23, (3S,11aR)-7-(4-(4-chloro-3-(trifluoromethyl)phenoxy)phenethoxy)-3,4-dihydro-1H,9H,11H-3,11a-methanopyrimido[6′,1′:2,3] imidazo[5,1-c][1,4]oxazin-9-one] | 5 nM
6 | Cn1cc(Oc2c(F)cc(COc3cc4n(c(=O)n3)CC3(C)CCCN43)cc2F)cn1 (stereo not drawn) [Example 57, 3-((3,5-difluoro-4-((1-methyl-1H-pyrazol-4-yl)oxy)benzyl)oxy)-8a-methyl-7,8,8a,9-tetrahydro-1H,6Hpyrrolo[1′,2′:3,4] imidazo[1,2-c]pyrimidin-1-one] | 62.2 nM
7 | O=c1nc(OCc2ccc(Oc3ccc(C(F)(F)F)cc3)c(F)c2)cc2n1CC13CC(CN21)C3 [Example 129, 3-((3-fluoro-4-(4-(trifluoromethyl)phenoxy)benzyl)oxy)-7,8-dihydro-1H,6H,9H-7,8a-methanopyrrolo[1′,2′:3,4] imidazo[1,2-c]pyrimidin-1-one] | 6.5 nM
8 | O=c1nc(OCc2cc(F)c(Oc3ccnc(C(F)(F)F)c3)c(F)c2)cc2n1CC13CC(CN21)C3 [Example 36, 3-((3,5-difluoro-4-((2-(trifluoromethyl)pyridin-4-yl)oxy)benzyl)oxy)-7,8-dihydro-1H,6H,9H-7,8a-methanopyrrolo[1′,2′:3,4] imidazo[1,2-c]pyrimidin-1-one] | 9.6 nM
9 | COc1c(OCc2cc(F)c(Oc3ccnc(C(F)(F)F)c3)c(F)c2)nc(=O)n2c1N1C[C@@H]3C[C@]1(CO3)C2 [Example 106, (3S,11aR)-7-((3,5-difluoro-4-((2-(trifluoromethyl)pyridin-4-yl)oxy)benzyl)oxy)-6-methoxy-3,4-dihydro-1H,9H,11H-3,11a-methanopyrimido[6′,1′:2,3] imidazo[5,1-c][1,4]oxazin-9-one] | 1 nM
10 | CN1C(=O)[C@]23C[C@H]1CN2c1cc(OCc2cc(F)c(Oc4cnn(C)c4)c(F)c2)nc(=O)n1C3 [Example 167, (3S,11aR)-7-((3,5-difluoro-4-((1-methyl-1H-pyrazol-4-yl)oxy)benzyl)oxy)-2-methyl-3,4-dihydro-9H,11H-3,11a-methanopyrazino[1′,2′:3,4] imidazo[1,2-c]pyrimidine-1,9(2H)-dione] | 19.4 nM
11 | N#Cc1cc(COc2cc3n(c(=O)n2)C[C@@]24CO[C@@H](CN32)C4)ccc1Oc1cccc(C(F)(F)F)c1 [Example 33] | 6 nM
12 | Cc1c(OCc2cc(F)c(Oc3ccnc(C(F)(F)F)c3)c(F)c2)nc(=O)n2c1N1C[C@@H]3C[C@]1(CO3)C2 [Example 92, (3S,11aR)-7-((3,5-difluoro-4-((2-(trifluoromethyl)pyridin-4-yl)oxy)benzyl)oxy)-6-methyl-3,4-dihydro-1H,9H,11H-3,11a-methanopyrimido[6′,1′:2,3] imidazo[5,1-c][1,4]oxazin-9-one] | 5.6 nM
13 | NC12CN3c4cc(OCc5ccc(Oc6ccnc(C(F)(F)F)c6)c(F)c5)nc(=O)n4CC3(C1)C2 [Example 202, 7-Amino-3-((3-fluoro-4-((2-(trifluoromethyl)pyridin-4-yl)oxy)benzyl)oxy)-7,8-dihydro-1H,6H,9H-7,8a-methanopyrrolo[1′,2′:3,4]imidazo[1,2-c]pyrimidin-1-one] | 1.9 nM
14 | O=c1nc(OCc2ccc(Oc3ccnc(C(F)(F)F)c3)cc2F)cc2n1C[C@]13CO[C@H](CN21)C3 [Example 96, (3S,11aR)-7-((2-difluoro-4-((2-(trifluoromethyl)pyridin-4-yl)oxy)benzyl)oxy)-3,4-dihydro-1H,9H,11H-3,11a-methanopyrimido[6′1′:2,3] imidazo[5,1-c][1,4]oxazin-9-one] | 4.7 nM
15 | COc1c(OCc2ccc(Oc3ccnc(C(F)F)c3)c(F)c2)nc(=O)n2c1N1CC3CC1(C3)C2 [Example 140, 3-((4-((2-(difluoromethyl)pyridin-4-yl)oxy)-3-fluorobenzyl)oxy)-4-methoxy-7,8-dihydro-1H,6H,9H-7,8a-methanopyrrolo[1′,2′:3,4] imidazo[1,2-c]pyrimidin-1-one] | 3.9 nM
16 | COc1c(OCCc2ccc(Oc3ccc(Cl)c(C(F)(F)F)c3)c(F)c2)nc(=O)n2c1N1CC3CC1(C3)C2 [Example 187, 3-(4-(4-chloro-3-(trifluoromethyl)phenoxy)-3-fluorophenethoxy)-4-methoxy-7,8-dihydro-1H,6H,9H-7,8a-methanopyrrolo[1′,2′:3,4] imidazo[1,2-c]pyrimidin-1-one] | 7.8 nM

More lines, now with the values ahead:

Row | IC50 | Structure (SMILES)
17 | 6.9 nM | CC12CCCCN1c1cc(OCc3ccc(Oc4ccc(Cl)c(C(F)(F)F)c4)c(C#N)c3)nc(=O)n1C2 (stereo not drawn) [Example 70, 2-(4-chloro-3-(trifluoromethyl)phenoxy)-5-(((-9a-methyl-1-oxo-6,7,8,9,9a,10-hexahydro-1H-pyrido[1′,2′:3,4]imidazo [1,2-c]pyrimidin-3-yl)oxy)methyl)benzonitrile]
18 | 1.5 nM | O=c1nc(OCc2ccc(Oc3ccnc(C(F)(F)F)c3)c(F)c2)c(C(F)(F)F)c2n1C[C@]13CO[C@H](CN21)C3 [Example 164, (3S,11aR)-7-((3-fluoro-4-((2-(trifluoromethyl)pyridin-4-yl)oxy)benzyl)oxy)-6-(trifluoromethyl)-3,4-dihydro-1H,9H,11H-3,11a-methanopyrimido[6′,1′:2,3] imidazo[5,1-c][1,4]oxazin-9-one]
19 | 8.5 nM | O=c1nc(OCc2cc(F)c(Oc3ccnc(Cl)c3)c(F)c2)cc2n1CC13CC(CN21)C3 [Example 38, 3-((4-((2-chloropyridin-4-yl)oxy)-3,5-difluorobenzyl)oxy)-7,8-dihydro-1H,6H,9H-7,8a-methanopyrrolo[1′,2′:3,4] imidazo[1,2-c]pyrimidin-1-one]
20 | 6.7 nM | Cc1cc(Oc2c(F)cc(COc3cc4n(c(=O)n3)C[C@]35CO[C@H](CN43)C5)cc2F)ccn1 [Example 10, (3S,11aR)-7-((3,5-difluoro-4-((2-methyl-pyridin-4-yl)oxy)benzyl)oxy)-3,4-dihydro-1H,9H,11H-3,11a-methanopyrimido[6′,1′:2,3] imidazo[5,1-c][1,4]oxazin-9-one]
21 | 7.6 nM | N#Cc1c(OCc2cc(F)c(Oc3ccnc(C(F)(F)F)c3)c(F)c2)nc(=O)n2c1N1C[C@@H]3C[C@]1(CO3)C2 [Example 102, (3S,11aR)-7-((3,5-difluoro-4-((2-(trifluoromethyl)pyridin-4-yl)oxy)benzyl)oxy)-6-cyano-3,4-dihydro-1H,9H,11H-3,11a-methanopyrimido[6′,1′:2,3] imidazo[5,1-c][1,4]oxazin-9-one]
22 | 12.1 nM | CCC12CCCN1c1cc(OCc3ccc(Oc4cc(C#N)cc(C(F)(F)F)c4)c(F)c3)nc(=O)n1C2 (stereo not drawn) [Example 65]
23 | 6.6 nM | O=c1nc(OCc2ccc(Oc3ccnc(C(F)(F)F)c3)cc2)cc2n1C[C@]13CO[C@H](CN21)C3 [Example 15, (3S,11aR)-7-((4-((2-(trifluoromethyl)pyridin-4-yl)oxy)benzyl)oxy)-3,4-dihydro-1H,9H,11H-3,11a-methanopyrimido[6′,1′:2,3] imidazo[5,1-c][1,4]oxazin-9-one]
24 | 8.6 nM | CCc1c(OCc2cc(F)c(Oc3ccnc(C(F)(F)F)c3)c(F)c2)nc(=O)n2c1N1C[C@@H]3C[C@]1(CO3)C2 [Example 104, (3S,11aR)-7-((3,5-difluoro-4-((2-(trifluoromethyl)pyridin-4-yl)oxy)benzyl)oxy)-6-ethyl-3,4-dihydro-1H,9H,11H-3,11a-methanopyrimido[6′,1′:2,3] imidazo[5,1-c][1,4]oxazin-9-one]
25 | 42.2 nM | CCC12CCCCN1c1cc(OCc3cc(F)c(Oc4ccc(C(F)(F)F)nc4)c(F)c3)nc(=O)n1C2 (stereo not drawn) [Example 76, 3-((3,5-difluoro-4-((6-(trifluoromethyl)pyridin-3-yl)oxy)benzyl)oxy)-9a-ethyl-6,7,8,9,9a,10-hexahydro-1H-pyrido[1′,2′:3,4]imidazo [1,2-c]pyrimidin-1-one]
26 | 3.6 nM | N#Cc1cc(COc2cc3n(c(=O)n2)C[C@@]24CO[C@@H](CN32)C4)ccc1Oc1ccc(C(F)(F)F)cc1 [Example 34, 5-((((3R,11aS)-9-oxo-3,4-dihydro-1H,9H,11H-3,11a-methanopyrimido[6′,1′:2,3]imidazo[5,1-c][1,4]oxazin-7-yl)oxy)methyl)-2-(4-(trifluoromethyl)phenoxy) benzonitrile]
27 | 6.7 nM | CC12COCCN1c1cc(OCc3ccc(Oc4cccc(C(F)(F)F)c4)c(C#N)c3)nc(=O)n1C2 (stereo not drawn) [Example 85]
